Laboratory results from PMC8754130, “A Peptide from Budding Yeast GAPDH Serves as a Promising Antifungal against Cryptococcus neoformans” (Microbiology Spectrum, 2022).
“And” between values parts separate entries of the source, which are not always exact repeats. Equal values may be shown once.

Key:
Cryptococcus neoformans = assay: organism not typed; conditions: 72 h, 37°C, three independent experiments
Experimental: (§1) The MIC of the peptide was determined using a standardized micro-broth dilution method with a panel of pathogenic yeast strains (C. albicans, […], C. neoformans, and C. gattii) and bacterial strains (Escherichia coli, Micrococcus luteus, Staphylococcus aureus, and Pseudomonas aeruginosa).
(§2) The value of the MIC was defined as the lowest concentration of drugs showing no yeast growth. The MIC was determined by three independent repeats, each repeat in quintuplicate.

Aspergillus fumigatus = assay: MIC, micro-broth dilution (CLSI M27-A4); format: cell-based; conditions: Aspergillus fumigatus (YJ407), laboratory stock; three independent experiments
Experimental: as §1, §2

[1] = tested on: ergosterol in the cell membrane of C. neoformans (H99) cells; assay: Filipin III staining of membrane ergosterol; format: cell-based, Cryptococcus neoformans; conditions: 1 h
Excerpt: All fluorescent images were collected with the confocal microscope (Olympus IX81) at a magnification of ×100 (oil immersion). […] Images were taken using the same confocal microscope described above. […] The fluorescent images of mitochondria were acquired on the confocal microscope (Leica SP8). At least 200 cells per sample were categorized based on their tubular or fragmented mitochondria morphologies. To quantify the fluorescent staining of ergosterol by filipin III, H99 cells with different treatment were stained by filipin III as described ([37]). The fluorescent images were acquired by the IX81 confocal microscope described above. The ImageJ was used to measure the mean fluorescent intensity. The statistical analysis of fluorescent intensity was based on three independent experiments. In each experiment, at least 100 cells were counted in three different visual fields.

[2] = Calcein leakage assay, fungal membrane mimic; conditions: 4 μM; Tris buffer pH 7.4; fluorescence 10 min after addition; 100% = Triton X-100; three independent experiments
Experimental: These experiments were performed as previously described ([34]). Briefly, phospholipid vesicles were prepared from POPC: POPE (at a ratio of 1:4), POPC/POPE/Erg (at a ratio of 5:4:3), and POPC with 40% cholesterol, which mimics the cell membranes of bacterial, fungal, and mammalian cells, respectively. The resulting lipid film was suspended in Tris buffer (20 mM Tris, 100 mM NaCl, and 40 mM calcein, pH 7.4). Extravehicular buffer containing lipid vesicles with entrapped calcein was read in a fluorimeter using excitation at 490 nm and emission at 520 nm. […] The 10% Triton X-100 was used to disrupt lipid vesicles for obtaining the maximum fluorescence intensity.

[3] = tested on: C. neoformans protoplasts; assay: Protoplast rupture experiment (microscopy); format: cell-based, Cryptococcus neoformans; conditions: 2.5 μM, 2 h; three experiments
Excerpt: Many antimicrobial peptides form pores in cell membranes to kill cells ([38]). […] To test this hypothesis, C. neoformans protoplasts were adopted for cell rupture experiments. Because the cell walls were digested with enzymes, the unprotected protoplasts could be easily ruptured following peptide-induced pore formation within the cell membrane. Moreover, without the structural support of a cell wall, cell rupture could be clearly observed under the microscope.

[4] = tested on: C. neoformans H99 protoplasts; assay: PI staining of protoplasts, flow cytometry; format: cell-based, Cryptococcus neoformans; conditions: 2.5 μM, 1 h; around 30,000 protoplasts per treatment; three independent experiments
Experimental: (§3) H99 cells were cultured in RPMI 1640 medium (Sigma, Shanghai) with 0.165 M MOPS (Sigma, Shanghai) overnight and diluted in fresh medium to an OD600 of 1. For the Annexin V-PI assay, the yeast protoplast preparation kit (BestBio, Shanghai) was used to prepare the protoplasts. […] The TUNEL assay was performed by using the Apoptosis Detection Kit (Yeasen, Shanghai) according to the manufacturer’s instructions. For JC-10 staining, H99 cells were stained by 30 μM JC-10 (Yeasen, Shanghai) and 0.02% Pluronic F-127(Beyotime, Shanghai) at 37°C for 30 min. The intracellular ROS was stained by the incubation with 5 μM H2DCFDA(MCE, Shanghai) at 37°C for 30 min. The stained samples were measured by BD FACSCalibur as described ([58]). The data were analyzed by FlowjoX. All experiments were repeated three times independently.

[5] = tested on: C. neoformans H99 protoplasts; assay: Annexin V staining (phosphatidylserine exposure), flow cytometry; format: cell-based, Cryptococcus neoformans; conditions: 2.5 μM, 1 h; three independent experiments
Experimental: as §3

C. neoformans H99 cells [6] = assay: Time-killing experiment (killing kinetics); format: cell-based, Cryptococcus neoformans; conditions: 2.5 μM (MIC of melittin), over 4 h, 37°C, RPMI 1640, CFU counting; three independent experiments
Experimental: The time-killing experiment was performed as described ([17]). C. neoformans H99 cells were cultured in RPMI 1640 medium overnight, and the concentration was adjusted to 3 × 10^7 colony-forming units (CFU)/mL. […] Aliquots were taken out to wash and serially diluted 1:10 in RPMI 1640 medium to final concentration of nearly 300 CFU/mL, and plate on the YPD medium at the corresponding time points. After incubating at 37°C for 48 h, colonies were counted to calculate the survival rate. The percentage of CFU of growth control was set as 100%. The percentage of recovering CFU on plates was plotted against time. The data were obtained from three independent experiments.

C. neoformans H99 cells [7] = assay: JC-10 mitochondrial membrane potential assay; format: cell-based, Cryptococcus neoformans; conditions: 8 μM, 37°C, 2 h; JC-10, flow cytometry; three experiments
Experimental: as §3

[8] = strain JEC21, RPMI 1640 + 0.165 M MOPS, lowest concentration showing no yeast growth
[9] = Cryptococcus neoformans, fzc9Δ, FLC-resistant strain derived from H99, RPMI 1640 + 0.165 M MOPS
[10] = Cryptococcus neoformans, gat5Δ, FLC-resistant strain derived from H99, RPMI 1640 + 0.165 M MOPS
[11] = Cryptococcus neoformans, liv4Δ, FLC-resistant strain derived from H99, RPMI 1640 + 0.165 M MOPS

With `C[C@@H]1[C@H](O)[C@@H](C)/C=C/C=C/C=C/C=C/C=C/C=C/C=C/[C@H](O[C@@H]2O[C@H](C)[C@@H](O)[C@H](N)[C@@H]2O)C[C@@H]2O[C@](O)(C[C@@H](O)C[C@@H](O)[C@H](O)CC[C@@H](O)C[C@@H](O)CC(=O)O[C@H]1C)C[C@H](O)[C@H]2C(=O)O` [AmB, amphotericin B] the MIC (Cryptococcus neoformans; [8]) was 0.4 µM, the MIC (Cryptococcus neoformans; Cryptococcus neoformans, atf1Δ, AmB-resistant strain derived from H99, RPMI 1640 + 0.165 M MOPS) was over 2.2 µM and the MIC (Cryptococcus neoformans; [9]) was 1.1 µM and 1 µg/mL. For the same compound, the MIC (Cryptococcus neoformans; Cryptococcus neoformans, fzc51Δ, AmB-resistant strain derived from H99, RPMI 1640 + 0.165 M MOPS) was > 2.2 µM and > 2 µg/mL, the MIC (Cryptococcus neoformans; [10]) was 1.1 µM and 1 µg/mL and the MIC (Cryptococcus neoformans; [11]) was 1.1 µM and 1 µg/mL. The MIC (Cryptococcus neoformans; Cryptococcus neoformans, strain H99, RPMI 1640 + 0.165 M MOPS) was 1.1 µM and 1 µg/mL, the MIC (Cryptococcus neoformans; atf1Δ, AmB-resistant strain derived from H99, RPMI 1640 + 0.165 M MOPS) was over 2 µg/mL and the MIC (Aspergillus fumigatus) was 0.4 µM and 0.37 µg/mL. The “filipin III signal” value ([1]; 1.1 μM) was “a decreased level of filipin III signal”.

With `OC(Cn1cncn1)(Cn1cncn1)c1ccc(F)cc1F` [FLC, fluconazole] the MIC (Cryptococcus neoformans; [8]) was 6.5 µM, the MIC (Cryptococcus neoformans; [9]) was over 26 µM and the MIC (Cryptococcus neoformans; [10]) was over 26 µM. It also gave an MIC (Cryptococcus neoformans; [11]) of over 26 µM, an MIC (Cryptococcus neoformans; fzc9Δ, FLC-resistant strain derived from H99, RPMI 1640 + 0.165 M MOPS) of over 8 µg/mL and an MIC (Cryptococcus neoformans; gat5Δ, FLC-resistant strain derived from H99, RPMI 1640 + 0.165 M MOPS) of over 8 µg/mL. For the same compound, the MIC (Cryptococcus neoformans; liv4Δ, FLC-resistant strain derived from H99, RPMI 1640 + 0.165 M MOPS) was over 8 µg/mL and the calcein leakage [2] was “did not induce calcein leakage”.

In the case of `CC[C@H](C)[C@H](NC(=O)CN)C(=O)NCC(=O)N[C@@H](C)C(=O)N[C@H](C(=O)N[C@@H](CC(C)C)C(=O)N[C@@H](CCCCN)C(=O)N[C@H](C(=O)N[C@@H](CC(C)C)C(=O)N[C@H](C(=O)N[C@H](C(=O)NCC(=O)N[C@@H](CC(C)C)C(=O)N1CCC[C@H]1C(=O)N[C@@H](C)C(=O)N[C@@H](CC(C)C)C(=O)N[C@H](C(=O)N[C@@H](CO)C(=O)N[C@@H](Cc1c[nH]c2ccccc12)C(=O)N[C@H](C(=O)N[C@@H](CCCCN)C(=O)N[C@@H](CCCNC(=N)N)C(=O)N[C@@H](CCCCN)C(=O)N[C@@H](CCCNC(=N)N)C(=O)N[C@@H](CCC(N)=O)C(=O)N[C@@H](CCC(N)=O)C(N)=O)[C@@H](C)CC)[C@@H](C)CC)[C@@H](C)O)[C@@H](C)O)C(C)C)C(C)C` [melittin], the protoplasts ruptured [3] is reported as about 80%, the PI-positive protoplasts [4] is reported as about 70% and the MIC (Cryptococcus neoformans; strain H99, RPMI 1640 + 0.165 M MOPS) is reported as 2.5 μM and 7.12 μg/mL. For the same compound, the “phosphatidylserine exposure (annexin V)” value [5] was “almost no phosphatidylserine exposure” and the cells killed (C. neoformans H99 cells [6]) was about 70%.

For `C[C@@H]1C/C=C/C=C/C=C/C=C/[C@H](O[C@@H]2O[C@H](C)[C@@H](O)[C@H](N)[C@@H]2O)C[C@@H]2O[C@](O)(C[C@@H](O)C[C@H]3O[C@@H]3/C=C/C(=O)O1)C[C@H](O)[C@H]2C(=O)O` [natamycin], the “filipin III signal” value ([1]; 15 μM) was “a decreased level of filipin III signal”.

For “IRIAINGFGRIGRPPPRPPPQRKDIEVVA [control peptide]”, the “cells that lost their mitochondrial membrane potential” value (C. neoformans H99 cells [7]) was about 5% and the calcein leakage [2] was “did not induce calcein leakage”.
